Source: patent US20240124460A1, “METHODS AND COMPOSITIONS FOR TARGETED PROTEIN DEGRADATION” (Ranok Therapeutics (Hangzhou) Co. Ltd., priority 2020, published 2024)
pEC50, pIC50: −log10 of the molar value. Like-named read-outs stand apart in the source and are kept apart here.

How the values were obtained:
HSP90α protein = target: T1, HSP90α protein (Homo sapiens, UniProt P07900); experiment: HSP90α-binding FP (BODIPY) assay; conditions: FP competition with BODIPY-labeled RNK04010
T1 construct: purchased BPS Bioscience #50298
Outline: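 Fluorescence polarization measured competition with N-terminal human HSP90α, using either FITC-geldanamycin or BODIPY-labelled triazolone RNK04010 as tracer (5 nM final each). Compounds were tested in 2.5-fold dilutions from 20 μM to 5.2 nM, with incubation at 25 °C for 120 min (FITC) or 300 min (BODIPY).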

ERBB2 = ERBB2 (HER2) flow cytometry protein degradation assay in BT-474 cells; format: cell-based, human; conditions: DC50, BT-474 cells, 24 hr
Procedure: To analyze total ERBB2 expression by flow cytometry, cells were detached with trypsin, washed, counted and treated with 10 μl/10^6 cells PE-conjugated, anti-ERBB2 monoclonal antibody (R&D Systems, #FAB1129P) for 30 min at 25° C. in dark. Cells were then washed, resuspended in 200 μl 1% paraformaldehyde and analyzed by flow cytometry.
% Inhibition=100−(D−B)/(S−B)*100%. • S: Fluorescence intensity of cells with antibody • D: Fluorescence intensity of compound-treated cells with antibody • B: Fluorescence intensity of cells without antibody

[1] = test system: U-87 MG human glioblastoma; experiment: U87 MG CCK-8 proliferation assay; format: cell-based; conditions: U-87 MG cells, read-out: U87MG CCK-8
Outline: (§1)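 Inhibition is derived from CCK-8 absorbance of compound-treated cells relative to DMSO-treated cells, after subtracting a cell-free medium/DMSO background. Test concentrations span 20 μM down to 1.02 nM in 3-fold steps, and lines are cultured as ATCC recommends.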

[2] = test system: MV-4-11 human acute myeloid leukemia; experiment: MV-4-11 CCK-8 proliferation assay; format: cell-based; conditions: MV-4-11 cells, 72 hr
Outline: as §1

CCOc1cc(N2CCC(C(=O)N3CCC(CN4CCN(CCCOc5ccc(Nc6ccc(-n7nc(C(F)(F)F)c8c7CC(C)(C)CC8=O)cc6C(N)=O)cc5)CC4)CC3)CC2)ccc1Nc1ncc2c(n1)N(C)c1ccccc1C(=O)N2C [Compound 066]
pIC50 (HSP90α protein): < 6.00
ERBB2 degradation (ERBB2): C (DC50 > 1000 nM)
pEC50 ([1]; Homo sapiens, U-87 MG, 72 h): < 6.00
pEC50 ([2]; Homo sapiens, MV4-11): < 6.00

CCOc1cc(N2CCC(C(=O)N3CCC(CN4CCN(Cc5ccc(-n6c(C(=O)N[C@H](C)C(F)(F)F)nnc6-c6cc(CC)c(O)cc6O)cc5)CC4)CC3)CC2)ccc1Nc1ncc2c(n1)N(S(C)(=O)=O)c1ccccc1C(=O)N2C [Compound 123, (R)-4-(4-((4-((1-(1-(3-ethoxy-4-((5-methyl-11-(methylsulfonyl)-6-oxo-6,11-dihydro-5H-benzo[e]pyrimido[5,4-b][1,4]diazepin-2-yl)amino)phenyl)piperidine-4-carbonyl)piperidin-4-yl)methyl)piperazin-1-yl)methyl)phenyl)-5-(5-ethyl-2,4-dihydroxyphenyl)-N-(1,1,1-trifluoropropan-2-yl)-4H-1,2,4-triazole-3-carboxamide]
pIC50 (HSP90α protein): 6.00 to 7.00
ERBB2 degradation (ERBB2): B (DC50 = 100-1000 nM)
pEC50 ([1]; Homo sapiens, U-87 MG, 72 h): 6.00 to 7.00
pEC50 ([2]; Homo sapiens, MV4-11): > 7.00

CCOc1cc(N2CCC(C(=O)N3CCC(CN4CCN(Cc5ccc(-n6c(C(=O)N[C@@H](C)C(F)(F)F)nnc6-c6cc(CC)c(O)cc6O)cc5)CC4)CC3)CC2)ccc1Nc1ncc2c(n1)N(S(C)(=O)=O)c1ccccc1C(=O)N2C [Compound 124, (S)-4-(4-((4-((1-(1-(3-ethoxy-4-((5-methyl-11-(methylsulfonyl)-6-oxo-6,11-dihydro-5H-benzo[e]pyrimido[5,4-b][1,4]diazepin-2-yl)amino)phenyl)piperidine-4-carbonyl)piperidin-4-yl)methyl)piperazin-1-yl)methyl)phenyl)-5-(5-ethyl-2,4-dihydroxyphenyl)-N-(1,1,1-trifluoropropan-2-yl)-4H-1,2,4-triazole-3-carboxamide]
pIC50 (HSP90α protein): 6.00 to 7.00
ERBB2 degradation (ERBB2): B (DC50 = 100-1000 nM)
pEC50 ([1]; Homo sapiens, U-87 MG, 72 h): 6.00 to 7.00
pEC50 ([2]; Homo sapiens, MV4-11): > 7.00

CCOc1cc(N2CCC(C(=O)NCc3ccc(-n4c(O)nnc4-c4cc(CC)c(O)cc4O)cc3)CC2)ccc1Nc1ncc2c(n1)N(C)c1ccccc1C(=O)N2C [Compound 028, 1-(4-((5,11-dimethyl-6-oxo-6,11-dihydro-5H-benzo[e]pyrimido[5,4-b][1,4]diazepin-2-yl)amino)-3-ethoxyphenyl)-N-(4-(3-(5-ethyl-2,4-dihydroxyphenyl)-5-hydroxy-4H-1,2,4-triazol-4-yl)benzyl)piperidine-4-carboxamide]
pIC50 (HSP90α protein): 6.00 to 7.00
ERBB2 degradation (ERBB2): B (DC50 = 100-1000 nM)
pEC50 ([1]; Homo sapiens, U-87 MG, 72 h): < 6.00
pEC50 ([2]; Homo sapiens, MV4-11): 6.00 to 7.00

CCOc1cc(N2CCC(C(=O)N3CCC(CN4CCN(Cc5ccc(-n6c(O)nnc6-c6cc(CC)c(O)cc6O)cc5)CC4)CC3)CC2)ccc1Nc1ncc2c(n1)N(S(C)(=O)=O)c1ccccc1C(=O)N2C [Compound 070, 2-((2-ethoxy-4-(4-(4-((4-(4-(3-(5-ethyl-2,4-dihydroxyphenyl)-5-hydroxy-4H-1,2,4-triazol-4-yl)benzyl)piperazin-1-yl)methyl)piperidine-1-carbonyl)piperidin-1-yl)phenyl)amino)-5-methyl-11-(methylsulfonyl)-5,11-dihydro-6H-benzo[e]pyrimido[5,4-b][1,4]diazepin-6-one]
pIC50 (HSP90α protein): 6.00 to 7.00
ERBB2 degradation (ERBB2): B (DC50 = 100-1000 nM)
pEC50 ([1]; Homo sapiens, U-87 MG, 72 h): 6.00 to 7.00
pEC50 ([2]; Homo sapiens, MV4-11): > 7.00

CCOc1cc(N2CCC(C(=O)N3CCC(Cc4ccc(CN(C)Cc5ccc(-n6c(C(=O)NCC(F)(F)F)nnc6-c6cc(C(C)C)c(O)cc6O)cc5)cn4)CC3)CC2)ccc1Nc1ncc2c(n1)N(C)c1ccccc1C(=O)N2C [Compound 057, 5-(2,4-dihydroxy-5-isopropylphenyl)-4-(4-((((6-((1-(1-(4-((5,11-dimethyl-6-oxo-6,11-dihydro-5H-benzo[e]pyrimido[5,4-b][1,4]diazepin-2-yl)amino)-3-ethoxyphenyl)piperidine-4-carbonyl)piperidin-4-yl)methyl)pyridin-3-yl)methyl)(methyl)amino)methyl)phenyl)-N-(2,2,2-trifluoroethyl)-4H-1,2,4-triazole-3-carboxamide]
pIC50 (HSP90α protein): 6.00 to 7.00
ERBB2 degradation (ERBB2): B (DC50 = 100-1000 nM)
pEC50 ([1]; Homo sapiens, U-87 MG, 72 h): 6.00 to 7.00
pEC50 ([2]; Homo sapiens, MV4-11): > 7.00

CCOc1cc(N2CCC(C(=O)N3CCC(N4CCN(Cc5ccc(-n6c(O)nnc6-c6cc(C(C)C)c(O)cc6O)cc5C(F)(F)F)CC4)CC3)CC2)ccc1Nc1ncc2c(n1)N(C)c1ccccc1C(=O)N2C [Compound 038, 2-((4-(4-(4-(4-(4-(3-(2,4-dihydroxy-5-isopropylphenyl)-5-hydroxy-4H-1,2,4-triazol-4-yl)-2-(trifluoromethyl)benzyl)piperazin-1-yl)piperidine-1-carbonyl)piperidin-1-yl)-2-ethoxyphenyl)amino)-5,11-dimethyl-5,11-dihydro-6H-benzo[e]pyrimido[5,4-b][1,4]diazepin-6-one]
pIC50 (HSP90α protein): 6.00 to 7.00
ERBB2 degradation (ERBB2): B (DC50 = 100-1000 nM)
pEC50 ([1]; Homo sapiens, U-87 MG, 72 h): < 6.00
pEC50 ([2]; Homo sapiens, MV4-11): > 7.00

CCCc1cc(-c2nnc(O)n2-c2ccc(CNC(=O)C3CCN(c4ccc(Nc5ncc6c(n5)N(C)c5ccccc5C(=O)N6C)c(OCC)c4)CC3)cc2)c(O)cc1O [Compound 029, N-(4-(3-(2,4-dihydroxy-5-propylphenyl)-5-hydroxy-4H-1,2,4-triazol-4-yl)benzyl)-1-(4-((5,11-dimethyl-6-oxo-6,11-dihydro-5H-benzo[e]pyrimido[5,4-b][1,4]diazepin-2-yl)amino)-3-ethoxyphenyl)piperidine-4-carboxamide]
ERBB2 degradation (ERBB2): B (DC50 = 100-1000 nM)
pEC50 ([1]; 72 hr): < 6.00
pEC50 ([2]; Homo sapiens, MV4-11): 6.00 to 7.00

CCOc1cc(N2CCC(C(=O)N3CCC(CN4CCN(Cc5ccc(-n6c(C(=O)NC7CC7)nnc6-c6cc(CC)c(O)cc6O)cc5)CC4)CC3)CC2)ccc1Nc1ncc2c(n1)N(S(C)(=O)=O)c1ccccc1C(=O)N2C [Compound 075, N-cyclopropyl-4-(4-((4-((1-(1-(3-ethoxy-4-((5-methyl-11-(methylsulfonyl)-6-oxo-6,11-dihydro-5H-benzo[e]pyrimido[5,4-b][1,4]diazepin-2-yl)amino)phenyl)piperidine-4-carbonyl)piperidin-4-yl)methyl)piperazin-1-yl)methyl)phenyl)-5-(5-ethyl-2,4-dihydroxyphenyl)-4H-1,2,4-triazole-3-carboxamide]
pIC50 (HSP90α protein): > 7.00
ERBB2 degradation (ERBB2): B (DC50 = 100-1000 nM)
pEC50 ([1]; Homo sapiens, U-87 MG, 72 h): > 7.00
pEC50 ([2]; Homo sapiens, MV4-11): > 7.00

CCCc1cc(-c2nnc(O)n2-c2ccc(CNC(=O)C3CCN(c4ccc(Nc5ncc6c(n5)N(C)c5ccccc5C(=O)N6C)c(OCC)c4)CC3)cc2)c(O)cc1O [Compound 039, N-(4-(3-(2,4-dihydroxy-5-propylphenyl)-5-hydroxy-4H-1,2,4-triazol-4-yl)benzyl)-1-(4-((5,11-dimethyl-6-oxo-6,11-dihydro-5H-benzo[e]pyrimido[5,4-b][1,4]diazepin-2-yl)amino)-3-ethoxyphenyl)piperidine-4-carboxamide]
ERBB2 degradation (ERBB2): B (DC50 = 100-1000 nM)
pEC50 ([1]; 72 hr): 6.00 to 7.00
pEC50 [2]: 6.00 to 7.00

CCOc1cc(N2CCC(C(=O)NCc3ccc(-n4c(O)nnc4-c4cc(CC)c(O)cc4O)cc3C(F)(F)F)CC2)ccc1Nc1ncc2c(n1)N(C)c1ccccc1C(=O)N2C [Compound 031, 1-(4-((5,11-dimethyl-6-oxo-6,11-dihydro-5H-benzo[e]pyrimido[5,4-b][1,4]diazepin-2-yl)amino)-3-ethoxyphenyl)-N-(4-(3-(5-ethyl-2,4-dihydroxyphenyl)-5-hydroxy-4H-1,2,4-triazol-4-yl)-2-(trifluoromethyl)benzyl)piperidine-4-carboxamide]
pIC50 (HSP90α protein): < 6.00
ERBB2 degradation (ERBB2): C (DC50 > 1000 nM)
pEC50 ([1]; Homo sapiens, U-87 MG, 72 h): < 6.00
pEC50 ([2]; Homo sapiens, MV4-11): < 6.00

CCOc1cc(N2CCC(C(=O)NCc3ccc(CN4CCC(Cc5ccc(-n6c(C(=O)NC(C)C)nnc6-c6cc(C(C)C)c(O)cc6O)cc5)CC4)cc3)CC2)ccc1Nc1ncc2c(n1)N(C)c1ccccc1C(=O)N2C [Compound 056, N-(4-((4-(4-(3-(2,4-dihydroxy-5-isopropylphenyl)-5-(isopropylcarbamoyl)-4H-1,2,4-triazol-4-yl)benzyl)piperidin-1-yl)methyl)benzyl)-1-(4-((5,11-dimethyl-6-oxo-6,11-dihydro-5H-benzo[e]pyrimido[5,4-b][1,4]diazepin-2-yl)amino)-3-ethoxyphenyl)piperidine-4-carboxamide]
ERBB2 degradation (ERBB2): B (DC50 = 100-1000 nM)
pEC50 ([1]; Homo sapiens, U-87 MG, 72 h): 6.00 to 7.00
pEC50 ([2]; Homo sapiens, MV4-11): > 7.00
